Measured values taken from patent US7973219B2, “Method for producing transgenic plants resistant to weed control compounds which disrupt the porphyrin pathways of plants” (Sumitomo Chemical Company, Limited, priority 1998, dated 2011).

Key:
[1] = system: E. coli BT3/pACYCSP+pTVHVF1 strain; test: Growth of E. coli BT3/pACYCSP+pTVHVF1 (variant barley ferrochelatase) with herbicidal compound; assay type: cell-based, Escherichia coli; settings: 18 hours culture, Table 11
Excerpt: According to the description of Gibson, L. C. D. et al., Proc. Natl. Acad. Sci. USA, 92; p 1941 (1995), the DNA fragment containing bchH gene prepared in Example 1 was digested with the restriction enzymes NdeI and BglII. The resultant DNA fragment was inserted between NdeI restriction site and BamHI restriction site of expression vector pET11a (manufactured by Stratagene) to obtain plasmid pETBCH (FIG. 1). This plasmid pETBCH was introduced into E. coli BL21(DE3) strain competent cells (manufactured by Stratagene) according to the manual attached to the competent cells to obtain E. coli BL21(DE3)/pETBCH strain. The strain was inoculated into 1.5 ml LB liquid culture medium (1% tryptone, 0.5% yeast extract, 0.5% NaCl) containing 100 μg/ml ampicillin in a tube (14×10 mm), and the tube was covered with aluminum foil (hereinafter referred to as dark conditions), cultured with shaking at 37° C. under light of fluorescent lamp (about 8000 lux). When the absorbance at 600 nm of the liquid culture medium became about 0.6, isopropyl β-D-thiogalactopyranoside (IPTG) was added to the liquid culture medium so that the final concentration was 0.4 mM, and the culture was continued for about additional 20 hours. […] In contrast to this, when E. coli BL21(DE3)/pETBCH strain was cultured according to the same manner (with IPTG) except that the tube was not covered with aluminum foil (hereinafter referred to as light conditions), E. coli grew and turned red as above.
A plasmid bearing barley ferrochelatase gene was prepared by the method described in Miyamoto. K. et al. Plant Physiol. 105; p 769 (1994). The resultant plasmid was digested with restriction enzymes NspI and EcoRI to obtain the DNA fragment containing the gene encoding barley ferrochelatase whose signal sequence had been deleted (hereinafter referred to as the variant barley ferrochelatase). This DNA fragment was inserted between SphI restriction site and EcoRI restriction site of plasmid pTV119N (manufactured by Takara Shuzo Co., Ltd.) to construct plasmid pTVHVF1 (FIG. 12). […]
These E. coli strains were inoculated into YPT medium containing 10 or 1 ppm of the PPO inhibitory-type herbicidal compound represented by Structure 8, 100 μg/ml ampicillin, 15 μg/ml chloramphenicol, 10 μg/ml kanamycin, 10 μg/ml hemin and 50 μg/ml aminolevulinic acid, cultured under dark conditions or light conditions according to the same manner as in Example 2. Then, 18 hours after initiation of culture, the absorbance of liquid culture medium was measured at 600 nm. By taking the absorbance of the medium without the herbicidal compound as 1, the relative value of the absorbance of the medium containing the herbicidal compound was calculated.

[2] = system: E. coli BT3/pACYCSP+pRASSL8 strain; test: Growth of E. coli BT3/pACYCSP+pRASSL8 with herbicidal compound; assay type: cell-based, Escherichia coli; settings: 1 ppm, 18 hours culture, Table 16
Excerpt: According to the description of Gibson, L. C. D. et al., Proc. Natl. Acad. Sci. USA, 92; p 1941 (1995), the DNA fragment containing bchH gene prepared in Example 1 was digested with the restriction enzymes NdeI and BglII. The resultant DNA fragment was inserted between NdeI restriction site and BamHI restriction site of expression vector pET11a (manufactured by Stratagene) to obtain plasmid pETBCH (FIG. 1). This plasmid pETBCH was introduced into E. coli BL21(DE3) strain competent cells (manufactured by Stratagene) according to the manual attached to the competent cells to obtain E. coli BL21(DE3)/pETBCH strain. […] When the absorbance at 600 nm of the liquid culture medium became about 0.6, isopropyl β-D-thiogalactopyranoside (IPTG) was added to the liquid culture medium so that the final concentration was 0.4 mM, and the culture was continued for about additional 20 hours. […]
These E. coli strains were inoculated into YPT medium containing 1 ppm of the PPO inhibitory-type herbicidal compound represented by Structure 8, 100 μg/ml ampicillin, 15 μg/ml chloramphenicol, 10 μg/ml kanamycin, 10 μg/ml hemin and 50 μg/ml aminolevulinic acid, cultured under dark conditions or light conditions according to the same manner as in Example 2. Then, 18 hours after initiation of culture, the absorbance of the liquid culture medium was measured at 600 nm. […]

For `C#CCOc1cc(N2C(=O)C3=C(CCCC3)C2=O)c(F)cc1Cl` [Structure 8], the Relative absorbance ([1]; in the dark, 1 ppm) was 0.96, the Relative absorbance ([1]; in the dark, 10 ppm) was 0.94 and the Relative absorbance ([1]; in the light, 1 ppm) was 0.94. It also gave a Relative absorbance ([1]; in the light, 10 ppm) of 0.39, a Relative absorbance ([2]; in the dark) of 1.0 and a Relative absorbance ([2]; in the light) of 0.79.
